Reference: US20170267679A1, “[…] FUSED PYRIMIDINE COMPOUNDS AS INHIBITORS OF p97 COMPLEX” (Cleave Biosciences, Inc., priority 2016, published 2017)

Legend:
p97 = p97 (Homo sapiens, UniProt P55072); assay: p97 ADP Glo ATPase biochemical assay; details: 20 nM p97, 20 uM ATP, 37 deg C, 15 min; read-out: 97 ADP Glo Assay: IC50
Procedure: The ATPase assay is performed according the following protocol: Purified enzyme (20 nM p97), substrate (20 μM ATP) and a dose titration of compounds are mixed in buffer (50 mM TRIS pH 7.5, 20 mM MgCl2, 0.02% TX-100, 1 mM DTT, 0.2% (v/v) glycerol) and incubated at 37° C. for 15 minutes. The reaction is terminated and the level of product generated is measured using the ADP Glo Assay Kit (Promega, Madison Wis.). Plotting product generated versus compound concentration and using a four-parameter fit model generates an IC50 value for each compounds.
The p97 assay is an initial screening assay used to determine inhibitory activity of the compounds of the invention against the p97 complex. As discussed above, inhibition of activity of the p97 proteosome complex can enable apoptosis and cause elimination of neoplastic cells (cancer cells). The method follows that of Christianson in Nat. Cell Biol., (2011) 14:93.
Assay Buffer is a mixture of 50 mM TRIS pH 7.5, 20 mM MgCl2, 0.02% TX-100, 1 mM DTT and 0.2% (v/v) Glycerol. The well plate is Platetype: Corning 3674, 384 w plate. The identification kit is an ADP glo kit (Promega): stop buffer, detection reagent.
Serial dilute compound in DMSO in a 1:3.33-fold 10 point serial dilution.
in each well of 384 w plate add the following reagents:
0.5 μL compound serial diluted in DMSO (Final Conc. 10%)
2 μL ATP (Final Conc.=20 uM, diluted in assay buffer)
2.5 μL p97 (Final Conc.=20 nM, diluted in assay buffer)
Incubate at 37 deg C. for 15 min.
Add 5μ of stop buffer, incubate at RT for 40 min.
Add 10 μL of detection reagent, incubate at RT for 30 min.
Read luminescence on Envision plate reader.
Normalize luminescence data using no enzyme (full inhibition) and no compound (no inhibition) controls. Plot normalized luminescence data against log-transformed concentration values and fit to a sigmoidal curve to determine IC50 values (done in Collaborative Drug Discovery software).

K48-Ub in A549 cells = assay: A549 K48 cell intensity (K48 poly-ubiquitin immunofluorescence); type: cell-based; details: Homo sapiens, 6 hr incubation
Procedure: Image-analysis is used to generate quantitative data from these assays that can be fit to a four-parameter sigmoid curve to derive IC50 values. Substrates of the ubiquitin-proteasome system, such as p53, are monitored after tumor cell lines are incubated with compounds for several hours. Accumulation of these proteins indicates an inhibition of proteasome-mediated degradation. Accumulation of lysine-48 chain linkage of poly-ubiquitin is also monitored by immunofluorescence as an indicator of ubiquitin-proteasome system inhibition. Both LC3 and SQSTM1 are mediators of autophagy. The localization and amounts of these proteins are monitored by immunofluorescence and report on the activity and inhibition of autophagy in response to p97 inhibition.
(§1) Plate 25 μL of A549 cells in every well of 384-well plate using multidrop. • Two (2) black plates for IF at 2500 cells/well • Let plate sit at room temp for 10-15 minutes prior to putting in incubator to allow cells to stick in middle of plate. • One (1) white plate for viability at 500 cells/well.
Treat Cells: • Serial dilute compounds with a 10 point 2-fold serial dilution in DMSO to make 250× stock compound solution • Dilute compounds 1:125 in cell culture media to make a 2× solution Add 25 μL of dilution compounds to cell plates in well duplicates Put cells back in incubator (6 hr incubation for black plates, 72 hr incubation for white plates).
Incubate cells in black plates with compound at 37 deg C. for 6 hrs. add 15 μL of 16% Paraformaldehyde (PFA) directly into media of each well, • incubate at room temp for 5 min, flick plate and wash in 50 µL of PBS block in 50 μL of Blocking Buffer for 30 minutes (can go up to several hours) • Blocking buffer: 1×PBS, 1% BSA, 0.3% Triton-X100, Hoechst (1:10,000) incubate in 25 μL of primary antibody in blocking buffer at 4 deg C. over night […]
Secondary Antibodies: • AlexaFluor488 Goat anti-Rabbit 1:2,000 (Life Tech A11008) • AlexaFluor555 Goat anti-Mouse 1:2,000 (Life Tech A21422) wash black plates 3× in 50 μL PBS (˜5 min each) • incubate in 25 μL of secondary antibody (1:2,000) in blocking buffer for 1-2 hrs at room temp (alexafluor488-anti-Rabbit/alexafluor555-anti-Mouse) Image plates in high content microscope with 405 nm, 488 nm and 555 nm filters Data Analysis: • Nuclear counts and cellular intensities of each markers are measured using Hoechst as a nuclear marker with an automated image analysis protocol using Matlab software (Math Works)

A549 cells = assay: A549 CellTitre Glo viability assay; type: cell-based; details: Homo sapiens, 72 hr incubation
Excerpt: Anti-tumor effects are monitored in cultured cancer cells after several days of compound treatment. The cell titer glo assay (Promega) measures the amount of ATP present as a proxy for cellular viability. Cellular counting is done using high-content microscopy followed by image analysis. A hanging drop 3D-culture system (3D Biomatrix) is used followed by cell titer glo to measure growth in a tumor-like environment.
The cellular assay provides information about the anti-neoplastic activity of the compounds of the invention. The compounds are tested against cultured cancer cells to determine whether or not the compounds of the invention are capable of intersecting with cancer cells to minimize or eliminate such cells. The assay involves establishing colonies of such cells and then treating them with the test compound under specified conditions and analysis regima to determine results.
as §1
Treat Cells: • Serial dilute compounds with a 10 point 2-fold serial dilution in DMSO to make 250× stock compound solution • Dilute compounds 1:125 in cell culture media to make a 2× solution Add 25 μL of dilution compounds to cell plates in well duplicates
Put cells back in incubator (6 hr incubation for black plates, 72 hr incubation for white plates).
Thaw an aliquot of frozen cell titer glo (Promega G7572) at room temperature.
Add 45 mL of NaCl/PBS solution to 5 ml of cell titer glo (10×).
Remove white plates from incubator, leave at room temp for 30 minutes.
Add 25 μL of diluted cell titer glo to each well.
Shake plate for >1 minute.
Incubate plate for >5 minutes to stabilize luminescence.
Read luminescence on plate reader

Caco-2 cell monolayer = details: pH 7.4, range over 12 inter-day experiments

Chain of p97 (P55072 whole entry): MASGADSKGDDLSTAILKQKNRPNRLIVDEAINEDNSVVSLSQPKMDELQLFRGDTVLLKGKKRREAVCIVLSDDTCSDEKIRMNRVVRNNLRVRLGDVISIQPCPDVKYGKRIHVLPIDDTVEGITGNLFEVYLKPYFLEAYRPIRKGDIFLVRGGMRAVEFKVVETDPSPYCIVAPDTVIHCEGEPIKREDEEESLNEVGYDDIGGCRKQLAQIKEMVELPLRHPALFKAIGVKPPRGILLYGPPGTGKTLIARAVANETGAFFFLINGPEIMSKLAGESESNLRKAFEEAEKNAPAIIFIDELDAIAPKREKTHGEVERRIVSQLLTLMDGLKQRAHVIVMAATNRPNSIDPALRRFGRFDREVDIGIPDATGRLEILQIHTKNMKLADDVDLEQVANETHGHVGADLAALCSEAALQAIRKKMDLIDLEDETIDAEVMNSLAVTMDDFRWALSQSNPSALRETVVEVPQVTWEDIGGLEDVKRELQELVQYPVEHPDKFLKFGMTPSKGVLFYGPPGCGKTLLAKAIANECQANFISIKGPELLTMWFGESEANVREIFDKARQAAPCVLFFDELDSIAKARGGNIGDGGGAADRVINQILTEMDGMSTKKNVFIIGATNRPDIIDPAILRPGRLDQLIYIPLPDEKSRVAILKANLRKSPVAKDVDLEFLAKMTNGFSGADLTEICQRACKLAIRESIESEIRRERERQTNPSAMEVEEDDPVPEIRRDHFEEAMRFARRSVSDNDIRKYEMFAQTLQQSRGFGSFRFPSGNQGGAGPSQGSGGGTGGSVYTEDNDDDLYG

| SMILES | IC50 (p97) | IC50 (K48-Ub in A549 cells) | IC50 (A549 cells) | Peff in pH 7.4 Caco-2, A B, Range (Caco-2 cell monolayer; A to B) | Peff in pH 7.4 Caco-2, B A, Range (Caco-2 cell monolayer; B to A) |
| --- | --- | --- | --- | --- | --- |
| Cc1cc2c(C(N)=O)cccc2n1-c1nc(NCc2ccccc2)c2c(n1)C1CCCCN1CC2 (centres unmarked) [Compound 001, 1-(4-(benzylamino)-6,8,9,10,11,11a-hexahydro-5H-pyrimido[4,5-a]quinolizin-2-yl)-2-methyl-1H-indole-4-carboxamide] | 16 nM | 736 nM | 1340 nM | – | – |
| Cc1cc2c(C(N)=O)cccc2n1-c1nc(NCc2ccccc2)c2c(n1)C1CCCN1CC2 (centres unmarked) [Compound 002, 1-(4-(benzylamino)-5,6,8,9,10,10a-hexahydropyrimido[5,4-g]indolizin-2-yl)-2-methyl-1H-indole-4-carboxamide] | 15 nM | 6620 nM | 2690 nM | – | – |
| Cc1cc2c(C(N)=O)cccc2n1-c1nc2c(c(NCc3ccccc3)n1)CN1CCCCC1C2 (centres unmarked) [Compound 003, 1-(4-(benzylamino)-7,8,9,10,10a,11-hexahydro-5H-pyrimido[4,5-b]quinolizin-2-yl)-2-methyl-1H-indole-4-carboxamide] | 25 nM | 642 nM | 2340 nM | – | – |
| Cc1cc2c(C(N)=O)cccc2n1-c1nc2c(c(NCc3ccccc3)n1)CN1CCCC1C2 (centres unmarked) [Compound 004, 1-[4-(Benzylamino)-5,7,8,9,9a,10-hexahydropyrimido[5,4-f]indolizin-2-yl]-2-methyl-indole-4-carboxamide] | 19 nM | 273 nM | 1120 nM | – | – |
| CC(C)NCC(O)COc1cccc2ccccc12 (centres unmarked) [Propranolol] | – | – | – | 18.50-36.80 x E−6 cm/sec | 16.30-31.40 x E−6 cm/sec |
